# Data from patent EP0908457B1, “3-(1,2-benzisothiazol- and isoxazol-5-Y1)-2,4(1H,3H)-pyrimidinedione or thione and 3-(1,2-benzisothiazol- and isoxazol-5-y1)-4(3H)-pyrimidinone or thione herbicidal agents” (BASF AKTIENGESELLSCHAFT, priority 1997, dated 1999).
# Experiments:
# Type in all cases: in vivo
# [1] = test system: Cyperus serotinus, Rottb.; test: Preemergence weed control under flooded paddy conditions, CYPSE (Flatsedge); conditions: for CYPSE: herbicidal effect rating 0-9, three to four weeks after treatment; for herbicidal effect rating, CYPSE: meaning of each grade not given here
# [2] = test system: Echinochloa oryzoides (Ard.) Fritsch.; test: Preemergence weed control under flooded paddy conditions, ECHORC (Watergrass (Calif.)); conditions: flooded paddy; for ECHORC: herbicidal effect rating 0-9, three to four weeks after treatment; for herbicidal effect rating, ECHORC: meaning of each grade not given here
# Sagittaria pygmaea, L. = test: Preemergence weed control under flooded paddy conditions, SAGPY (Arrowhead (Pygmaea)); conditions: flooded paddy; for SAGPY: herbicidal effect rating 0-9, three to four weeks after treatment; for herbicidal effect rating, SAGPY: meaning of each grade not given here
# Cyperus iria = test: Preemergence weed control under flooded paddy conditions, CYPIR (Rice Flatsedge); conditions: flooded paddy; for CYPIR: herbicidal effect rating 0-9, three to four weeks after treatment; for herbicidal effect rating, CYPIR: meaning of each grade not given here
# [3] = test system: Monochoria vaginalis, Presl.; test: Preemergence weed control under flooded paddy conditions, MOOVA (Monochoria); conditions: flooded paddy; for MOOVA: herbicidal effect rating 0-9, three to four weeks after treatment; for herbicidal effect rating, MOOVA: meaning of each grade not given here
# [4] = Rate 0.0320 kg/ha, preemergence, rated three to four weeks after treatment
# [5] = Rate 0.0620 kg/ha, preemergence, rated three to four weeks after treatment
# [6] = Rate 0.1250 kg/ha, preemergence, rated three to four weeks after treatment
# [7] = Rate 0.2500 kg/ha, preemergence, rated three to four weeks after treatment
# [8] = Rate 0.0320 kg/ha, preemergence weeds, rated three to four weeks after treatment
# [9] = Rate 0.0620 kg/ha, preemergence weeds, rated three to four weeks after treatment
# [10] = Rate 0.1250 kg/ha, preemergence weeds, rated three to four weeks after treatment
# [11] = Rate 0.2500 kg/ha, preemergence weeds, rated three to four weeks after treatment
# [12] = 0.0320 kg/ha, preemergence weeds
# [13] = 0.0620 kg/ha, preemergence weeds
# [14] = 0.1250 kg/ha, preemergence weeds
# [15] = 0.2500 kg/ha, preemergence weeds
# [16] = 0.0320 kg/ha, preemergence, rated three to four weeks after treatment
# [17] = 0.0620 kg/ha, preemergence, rated three to four weeks after treatment
# [18] = 0.1250 kg/ha, preemergence, rated three to four weeks after treatment
# [19] = 0.2500 kg/ha, preemergence, rated three to four weeks after treatment
# [20] = Rate 0.0320 kg/ha, preemergence, rated 3-4 weeks after treatment
# [21] = Rate 0.0620 kg/ha, preemergence, rated 3-4 weeks after treatment
# [22] = Rate 0.1250 kg/ha, preemergence, rated 3-4 weeks after treatment
# [23] = Rate 0.2500 kg/ha, preemergence, rated 3-4 weeks after treatment
structure (smiles),measurement,setting,value
"Cn1c(C(F)(F)F)cc(=O)n(-c2ccc3snc(C(C)(C)C(=O)OCc4ccccc4)c3c2)c1=O [Example 396, 1,2-Benzisothiazole-3-acetic acid, 5-[3,6-dihydro-3-methyl-2,6-dioxo-4-(trifluoromethyl)-1(2H)-pyrimidinyl]-alpha,alpha-dimethyl-, benzyl ester]","herbicidal effect rating, CYPSE",[1]; [4],0.0
same,"herbicidal effect rating, CYPSE",[1]; [5],0.0
same,"herbicidal effect rating, CYPSE",[1]; [6],0.0
same,"herbicidal effect rating, CYPSE",[1]; [7],6.0
same,"herbicidal effect rating, ECHORC",[2]; [4],9.0
same,"herbicidal effect rating, ECHORC",[2]; [5],9.0
same,"herbicidal effect rating, ECHORC",[2]; [6],9.0
same,"herbicidal effect rating, ECHORC",[2]; [7],9.0
same,"herbicidal effect rating, SAGPY","Sagittaria pygmaea, L.; [4]",7.0
same,"herbicidal effect rating, SAGPY","Sagittaria pygmaea, L.; [5]",7.0
same,"herbicidal effect rating, SAGPY","Sagittaria pygmaea, L.; [6]",8.0
same,"herbicidal effect rating, SAGPY","Sagittaria pygmaea, L.; [7]",8.0
same,"herbicidal effect rating, CYPIR",Cyperus iria; [4],7.0
same,"herbicidal effect rating, CYPIR",Cyperus iria; [5],8.0
same,"herbicidal effect rating, CYPIR",Cyperus iria; [6],9.0
same,"herbicidal effect rating, CYPIR",Cyperus iria; [7],9.0
same,"herbicidal effect rating, MOOVA",[3]; [4],9.0
same,"herbicidal effect rating, MOOVA",[3]; [5],9.0
same,"herbicidal effect rating, MOOVA",[3]; [6],9.0
same,"herbicidal effect rating, MOOVA",[3]; [7],9.0
"CC(OS(C)(=O)=O)c1nsc2ccc(-n3c(=O)cc(C(F)(F)F)n(C)c3=O)cc12 (centres unmarked) [Example 309, 2,4(1H,3H)-Pyrimidinedione, 3-[3-(1-hydroxyethyl)-1,2-benzisothiazol-5-yl]-1-methyl-6-(trifluoromethyl)-, methanesulfonate (ester)]","herbicidal effect rating, CYPSE",[1]; [8],0.0
same,"herbicidal effect rating, CYPSE",[1]; [9],0.0
same,"herbicidal effect rating, CYPSE",[1]; [10],0.0
same,"herbicidal effect rating, CYPSE",[1]; [11],7.0
same,"herbicidal effect rating, ECHORC",[2]; [8],1.0
same,"herbicidal effect rating, ECHORC",[2]; [9],2.0
same,"herbicidal effect rating, ECHORC",[2]; [10],4.0
same,"herbicidal effect rating, ECHORC",[2]; [11],7.0
same,"herbicidal effect rating, SAGPY","Sagittaria pygmaea, L.; [8]",2.0
same,"herbicidal effect rating, SAGPY","Sagittaria pygmaea, L.; [9]",3.0
same,"herbicidal effect rating, SAGPY","Sagittaria pygmaea, L.; [10]",4.0
same,"herbicidal effect rating, SAGPY","Sagittaria pygmaea, L.; [11]",8.0
same,"herbicidal effect rating, CYPIR",Cyperus iria; [8],9.0
same,"herbicidal effect rating, CYPIR",Cyperus iria; [9],9.0
same,"herbicidal effect rating, CYPIR",Cyperus iria; [10],9.0
same,"herbicidal effect rating, CYPIR",Cyperus iria; [11],9.0
same,"herbicidal effect rating, MOOVA",[3]; [8],6.0
same,"herbicidal effect rating, MOOVA",[3]; [9],6.0
same,"herbicidal effect rating, MOOVA",[3]; [10],9.0
same,"herbicidal effect rating, MOOVA",[3]; [11],9.0
"COc1cccc(CC(=O)OCc2nsc3ccc(-n4c(=O)cc(C(F)(F)F)n(C)c4=O)cc23)c1 [Example 454, 2,4(1H,3H)-Pyrimidinedione, 3-[3-(hydroxymethyl)-1,2-benzisothiazol-5-yl]-1-methyl-6-(trifluoromethyl)-, (m-methoxyphenyl)acetate (ester)]",CYPSE,[1]; [12],0.0
same,CYPSE,[1]; [13],0.0
same,CYPSE,[1]; [14],4.0
same,CYPSE,[1]; [15],8.0
same,ECHORC,[2]; [12],3.0
same,ECHORC,[2]; [13],3.0
same,ECHORC,[2]; [14],6.0
same,ECHORC,[2]; [15],7.0
same,SAGPY,"Sagittaria pygmaea, L.; [12]",0.0
same,SAGPY,"Sagittaria pygmaea, L.; [13]",2.0
same,SAGPY,"Sagittaria pygmaea, L.; [14]",3.0
same,SAGPY,"Sagittaria pygmaea, L.; [15]",6.0
same,CYPIR,Cyperus iria; [12],0.0
same,CYPIR,Cyperus iria; [13],1.0
same,CYPIR,Cyperus iria; [14],6.0
same,CYPIR,Cyperus iria; [15],9.0
same,MOOVA,[3]; [12],2.0
same,MOOVA,[3]; [13],7.0
same,MOOVA,[3]; [14],9.0
same,MOOVA,[3]; [15],9.0
"COC(=O)C(C)Oc1cc(C)c(I)cc1-c1nsc2ccc(-n3c(=O)cc(C(F)(F)F)n(C)c3=O)cc12 (centres unmarked) [Example 470, Propionic acid, 2-{{6-{5-[3,6-dihydro-3-methyl-2,6-dioxo-4-(trifluoromethyl)-1(2H)-pyrimidinyl]-1,2-benzisothiazol-3-yl}-4-iodo-m-tolyl}oxy}-, methyl ester]",CYPSE herbicidal rating,[1]; [16],0.0
same,CYPSE herbicidal rating,[1]; [17],0.0
same,CYPSE herbicidal rating,[1]; [18],0.0
same,CYPSE herbicidal rating,[1]; [19],4.5
same,ECHORC herbicidal rating,[2]; [16],8.5
same,ECHORC herbicidal rating,[2]; [17],9.0
same,ECHORC herbicidal rating,[2]; [18],9.0
same,ECHORC herbicidal rating,[2]; [19],9.0
same,SAGPY herbicidal rating,"Sagittaria pygmaea, L.; [16]",0.0
same,SAGPY herbicidal rating,"Sagittaria pygmaea, L.; [17]",0.0
same,SAGPY herbicidal rating,"Sagittaria pygmaea, L.; [18]",0.0
same,SAGPY herbicidal rating,"Sagittaria pygmaea, L.; [19]",1.5
same,CYPIR herbicidal rating,Cyperus iria; [16],0.0
same,CYPIR herbicidal rating,Cyperus iria; [17],0.0
same,CYPIR herbicidal rating,Cyperus iria; [18],6.0
same,CYPIR herbicidal rating,Cyperus iria; [19],7.0
same,MOOVA herbicidal rating,[3]; [16],1.5
same,MOOVA herbicidal rating,[3]; [17],2.0
same,MOOVA herbicidal rating,[3]; [18],2.0
same,MOOVA herbicidal rating,[3]; [19],3.0
"CCOC(=O)C1CCC(OC(=O)COc2ccc(C)cc2-c2nsc3ccc(-n4c(=O)cc(C(F)(F)F)n(C)c4=O)cc23)CC1 (single isomer, unassigned; isomer b) [Example 525, Acetic acid, {{2-{5-[3,6-dihydro-3-methyl-2,6-dioxo-4-(trifluoromethyl)-1(2H)-pyrimidinyl)-1,2-benzisothiazol-3-yl}-p-tolyl}oxy}-, ester with ethyl 4-hydroxycyclohexanecarboxylate, isomer B]","herbicidal effect rating, CYPSE",[1]; [20],0.0
same,"herbicidal effect rating, CYPSE",[1]; [21],0.0
same,"herbicidal effect rating, CYPSE",[1]; [22],0.0
same,"herbicidal effect rating, CYPSE",[1]; [23],0.0
same,"herbicidal effect rating, ECHORC",[2]; [20],6.0
same,"herbicidal effect rating, ECHORC",[2]; [21],7.0
same,"herbicidal effect rating, ECHORC",[2]; [22],9.0
same,"herbicidal effect rating, ECHORC",[2]; [23],9.0
same,"herbicidal effect rating, SAGPY","Sagittaria pygmaea, L.; [20]",0.0
same,"herbicidal effect rating, SAGPY","Sagittaria pygmaea, L.; [21]",0.0
same,"herbicidal effect rating, SAGPY","Sagittaria pygmaea, L.; [22]",0.0
same,"herbicidal effect rating, SAGPY","Sagittaria pygmaea, L.; [23]",0.0
same,"herbicidal effect rating, CYPIR",Cyperus iria; [20],0.0
same,"herbicidal effect rating, CYPIR",Cyperus iria; [21],2.0
same,"herbicidal effect rating, CYPIR",Cyperus iria; [22],2.0
same,"herbicidal effect rating, CYPIR",Cyperus iria; [23],4.0
same,"herbicidal effect rating, MOOVA",[3]; [20],9.0
same,"herbicidal effect rating, MOOVA",[3]; [21],9.0
same,"herbicidal effect rating, MOOVA",[3]; [22],9.0
same,"herbicidal effect rating, MOOVA",[3]; [23],9.0
"COC(CCOc1ccc(C)cc1-c1nsc2ccc(-n3c(=O)cc(C(F)(F)F)n(C)c3=O)cc12)OC [Example 467, Propionaldehyde, 3-{{2-[5-{3,6-dihydro-3-methyl-2,6-dioxo-4-(trifluoromethyl)-1(2H)-pyrimidinyl]-1,2-benzisothiazol-3-yl}-p-tolyl}oxy}-, 1-(dimethylacetal)]",CYPSE herbicidal rating,[1]; [16],6.0
same,CYPSE herbicidal rating,[1]; [17],7.0
same,CYPSE herbicidal rating,[1]; [18],9.0
same,CYPSE herbicidal rating,[1]; [19],9.0
same,ECHORC herbicidal rating,[2]; [16],6.0
same,ECHORC herbicidal rating,[2]; [17],7.0
same,ECHORC herbicidal rating,[2]; [18],9.0
same,ECHORC herbicidal rating,[2]; [19],9.0
same,SAGPY herbicidal rating,"Sagittaria pygmaea, L.; [16]",0.0
same,SAGPY herbicidal rating,"Sagittaria pygmaea, L.; [17]",0.0
same,SAGPY herbicidal rating,"Sagittaria pygmaea, L.; [18]",3.0
same,SAGPY herbicidal rating,"Sagittaria pygmaea, L.; [19]",7.0
same,CYPIR herbicidal rating,Cyperus iria; [16],2.0
same,CYPIR herbicidal rating,Cyperus iria; [17],5.0
same,CYPIR herbicidal rating,Cyperus iria; [18],6.0
same,CYPIR herbicidal rating,Cyperus iria; [19],9.0
same,MOOVA herbicidal rating,[3]; [16],7.0
same,MOOVA herbicidal rating,[3]; [17],9.0
same,MOOVA herbicidal rating,[3]; [18],9.0
same,MOOVA herbicidal rating,[3]; [19],9.0
"CCS(=O)(=O)NC(=O)C(C)Oc1ccc(C)cc1-c1nsc2ccc(-n3c(=O)cc(C(F)(F)F)n(C)c3=O)cc12 (centres unmarked) [Example 571, Propionamide, 2-{{2-{5-[3,6-dihydro-3-methyl-2,6-dioxo-4-(trifluoromethyl)-1(2H)-pyrimidinyl]-1,2-benzisothiazol-3-yl}-p-tolyl}oxy}-N-(ethylsulfonyl)]","herbicidal effect rating, CYPSE",[1]; [4],0.0
same,"herbicidal effect rating, CYPSE",[1]; [5],0.0
same,"herbicidal effect rating, CYPSE",[1]; [6],0.0
same,"herbicidal effect rating, CYPSE",[1]; [7],0.0
same,"herbicidal effect rating, ECHORC",[2]; [4],0.0
same,"herbicidal effect rating, ECHORC",[2]; [5],2.0
same,"herbicidal effect rating, ECHORC",[2]; [6],3.0
same,"herbicidal effect rating, ECHORC",[2]; [7],6.0
same,"herbicidal effect rating, SAGPY","Sagittaria pygmaea, L.; [4]",0.0
same,"herbicidal effect rating, SAGPY","Sagittaria pygmaea, L.; [5]",0.0
same,"herbicidal effect rating, SAGPY","Sagittaria pygmaea, L.; [6]",0.0
same,"herbicidal effect rating, SAGPY","Sagittaria pygmaea, L.; [7]",0.0
same,"herbicidal effect rating, CYPIR",Cyperus iria; [4],0.0
same,"herbicidal effect rating, CYPIR",Cyperus iria; [5],3.0
same,"herbicidal effect rating, CYPIR",Cyperus iria; [6],3.0
same,"herbicidal effect rating, CYPIR",Cyperus iria; [7],9.0
same,"herbicidal effect rating, MOOVA",[3]; [4],0.0
same,"herbicidal effect rating, MOOVA",[3]; [5],6.0
same,"herbicidal effect rating, MOOVA",[3]; [6],7.0
same,"herbicidal effect rating, MOOVA",[3]; [7],9.0
